The CheMixHub viscosity set

Assay: xn = mol fraction of the nth substance listed

COCCOCCOCCO + CCCO
viscosity [mPa·s], 101 kPa
Conditions | 298.15 K | 308.15 K | 318.15 K
x1 = 0.0134 | 1.952 | 1.526 | 1.246
x1 = 0.0366 | 1.983 | 1.555 | 1.273
x1 = 0.0639 | 2.034 | 1.604 | 1.32
x1 = 0.1165 | 2.159 | 1.692 | 1.4
x1 = 0.1568 | 2.273 | 1.786 | 1.484
x1 = 0.2037 | 2.434 | 1.894 | 1.576
x1 = 0.2664 | 2.652 | 2.064 | 1.715
x1 = 0.3205 | 2.847 | 2.213 | 1.851
x1 = 0.3498 | 3.007 | 2.328 | 1.927
x1 = 0.3669 | 3.042 | 2.349 | 1.973
x1 = 0.4076 | 3.264 | 2.495 | 2.085
x1 = 0.4623 | 3.514 | 2.678 | 2.228
x1 = 0.5601 | 4 | 3.021 | 2.51
x1 = 0.6022 | 4.21 | 3.158 | 2.624
x1 = 0.6441 | 4.433 | 3.312 | 2.741
x1 = 0.7071 | 4.778 | 3.545 | 2.921
x1 = 0.7635 | 5.059 | 3.746 | 3.074
x1 = 0.8228 | 5.311 | 3.929 | 3.238
x1 = 0.8494 | 5.452 | 4.008 | 3.312
x1 = 0.9137 | 5.74 | 4.23 | 3.489
x1 = 0.9358 | 5.875 | 4.299 | 3.55
x1 = 0.961 | 6.08 | 4.384 | 3.616

C[NH+](CCO)CCO.O=C[O-] + CCCO
viscosity [mPa·s], 101 kPa
Conditions | 293.15 K | 303.15 K | 313.15 K | 323.15 K
x1 = 0.0561 | 29.65 | 17.05 | 8.082 | 5.559
x1 = 0.1033 | 51.95 | 25.07 | 13.55 | 9.307
x1 = 0.1976 | 99.81 | 47.76 | 25.74 | 17.6
x1 = 0.3071 | 159.4 | 78.44 | 41.48 | 28.28
x1 = 0.4049 | 216.8 | 106.9 | 57.05 | 38.83
x1 = 0.5231 | 293.9 | 143.5 | 78.48 | 53.2
x1 = 0.6246 | 369.5 | 179.8 | 99.71 | 67.21
x1 = 0.7259 | 455.1 | 222.6 | 123.6 | 82.66
x1 = 0.8079 | 531.2 | 261.8 | 144.3 | 95.86
x1 = 0.9055 | 627 | 310.4 | 169 | 111.4
x1 = 0.9558 | 671.4 | 331.9 | 180.4 | 118.7

Nc1ccccc1 + CCCO
viscosity [mPa·s]
Conditions | 294.15 K | 298.15 K | 303.15 K | 308.15 K | 313.15 K
100 kPa, x1 = 0.091 | – | – | 1.673 | – | 1.319
100 kPa, x1 = 0.1839 | – | – | 1.635 | – | 1.275
100 kPa, x1 = 0.2978 | – | – | 1.609 | – | 1.255
100 kPa, x1 = 0.3949 | – | – | 1.626 | – | 1.271
100 kPa, x1 = 0.4741 | – | – | 1.673 | – | 1.31
100 kPa, x1 = 0.5952 | – | – | 1.819 | – | 1.399
100 kPa, x1 = 0.7405 | – | – | 2.129 | – | 1.602
100 kPa, x1 = 0.8903 | – | – | 2.582 | – | 1.958
101.33 kPa, x1 = 0.1006 | 2.097 | 1.902 | 1.685 | 1.501 | 1.341
101.33 kPa, x1 = 0.1991 | 2.123 | 1.93 | 1.703 | 1.516 | 1.357
101.33 kPa, x1 = 0.2994 | 2.219 | 1.993 | 1.753 | 1.56 | 1.394
101.33 kPa, x1 = 0.3992 | 2.336 | 2.098 | 1.846 | 1.633 | 1.446
101.33 kPa, x1 = 0.5007 | 2.499 | 2.234 | 1.952 | 1.727 | 1.526
101.33 kPa, x1 = 0.6011 | 2.689 | 2.398 | 2.092 | 1.842 | 1.638
101.33 kPa, x1 = 0.7011 | 2.963 | 2.641 | 2.304 | 2 | 1.791
101.33 kPa, x1 = 0.8002 | 3.289 | 2.925 | 2.575 | 2.241 | 1.981
101.33 kPa, x1 = 0.8983 | 3.671 | 3.245 | 2.81 | 2.455 | 2.16
